# In EP4810500A1, “IMIDAZOL-2-ONE DERIVATIVE AND USE THEREOF IN MEDICINE” (Haisco Pharmaceutical Group Co., Ltd., priority 2023, dated 2025):
# Target: GLP-1R (Homo sapiens, UniProt P43220)
# Experiment: In vitro activity assay (cAMP HTRF, HEK293-CRE-luc-GLP-1R cells)
# Assay type: cell-based
# Design: expressed in transfected cells; host or cells: HEK293 (HEK293-CRE-luc-GLP-1R)
# Details: cAMP HTRF 665 nm/620 nm, 1 h incubation
# Protocol: HEK293-CRE-luc-GLP-1R cells were seeded into a 384-well cell culture plate (Greiner #781946) at a certain cell density (5 µL/well). 5 µl/well of 2× working solution was added to the 384-well microplate. The microplate was sealed with parafilm and incubated in a 37°C 5% CO2 incubator (Thermo) for 1 h. Subsequently, the detection was performed using the cAMP-GS HIRANGE KIT (PerkinElmer, 62AM6PEB), and detection reagents were prepared according to the kit instruction manual. After the incubation, the detection reagents were added to the 384-well microplate, and the microplate was incubated for 1 h at room temperature in the dark. HTRF signals at 665 nm and 620 nm were then measured using a multimode microplate reader. Data were exported from the microplate reader in Excel format. GraphPad Prism was opened. The logarithm of the sample concentration was calculated. Using the logarithm of concentration as the x-axis and the 665 nm/620 nm ratio as the y-axis, four-parameter logistic fitting was performed to obtain the EC50 value of the curve. Table 1: EC50 of compounds against GLP-1
# Chain of GLP-1R (P43220 24-463): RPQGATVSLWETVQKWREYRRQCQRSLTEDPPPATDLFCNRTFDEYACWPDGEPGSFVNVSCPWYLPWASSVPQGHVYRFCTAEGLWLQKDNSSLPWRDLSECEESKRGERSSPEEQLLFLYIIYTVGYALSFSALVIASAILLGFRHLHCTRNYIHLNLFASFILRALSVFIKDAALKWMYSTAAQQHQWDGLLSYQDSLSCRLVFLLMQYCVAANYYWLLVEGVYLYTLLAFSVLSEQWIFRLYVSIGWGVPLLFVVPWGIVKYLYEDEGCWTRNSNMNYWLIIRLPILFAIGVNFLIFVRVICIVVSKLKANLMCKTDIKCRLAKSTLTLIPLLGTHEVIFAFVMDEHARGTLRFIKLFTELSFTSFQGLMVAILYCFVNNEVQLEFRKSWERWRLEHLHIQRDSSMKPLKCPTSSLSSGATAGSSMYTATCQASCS
row,SMILES,EC50 [nM]
1,Cc1cc(-n2nc3c(c2-n2ccn(-c4ccc5c(c4)N(C)C(=O)C54CCCC4)c2=O)[C@H](C)N(C(=O)c2cc4cc([C@H]5CCOC(C)(C)C5)ccc4n2[C@@]2(c4noc(=O)[nH]4)C[C@@H]2C)CC3)cc(C)c1F [Compound 5],< 1
2,Cc1cc(-n2nc3c(c2-n2ccn(-c4ccc5c(c4F)N(C)C(=O)C54CCOCC4)c2=O)[C@H](C)N(C(=O)c2cc4cc([C@H]5CCOC(C)(C)C5)ccc4n2[C@@]2(c4noc(=O)[nH]4)C[C@@H]2C)CC3)cc(C)c1F [Compound 7],< 1
3,[2H]C([2H])([2H])N1C(=O)C2(CCOCC2)c2ccc(-n3ccn(-c4c5c(nn4-c4cc(C)c(F)c(C)c4)CCN(C(=O)c4cc6cc([C@H]7CCOC(C)(C)C7)ccc6n4[C@@]4(c6noc(=O)[nH]6)C[C@@H]4C)[C@H]5C)c3=O)c(F)c21 [Compound 8],< 1
4,Cc1cc(-n2nc3c(c2-n2ccn(-c4ccc5c(c4)N(C)C(=O)C54CCN(C(=O)C5CC5)CC4)c2=O)[C@H](C)N(C(=O)c2cc4cc([C@H]5CCOC(C)(C)C5)ccc4n2[C@@]2(c4noc(=O)[nH]4)C[C@@H]2C)CC3)cc(C)c1F [Compound 12],< 1
5,Cc1cc(-n2nc3c(c2-n2ccn(-c4ccc5c(c4)N(C)C(=O)C54CCN(C(=O)[C@@H]5C[C@H]5F)CC4)c2=O)[C@H](C)N(C(=O)c2cc4cc([C@H]5CCOC(C)(C)C5)ccc4n2[C@@]2(c4noc(=O)[nH]4)C[C@@H]2C)CC3)cc(C)c1F [Compound 13],< 1
6,Cc1cc(-n2nc3c(c2-n2ccn(-c4ccc5c(c4)N(C)C(=O)C54CCN(C(=O)N[C@@H]5C[C@@H]5F)CC4)c2=O)[C@H](C)N(C(=O)c2cc4cc([C@H]5CCOC(C)(C)C5)ccc4n2[C@@]2(c4noc(=O)[nH]4)C[C@@H]2C)CC3)cc(C)c1F [Compound 17],< 1
7,Cc1cc(-n2nc3c(c2-n2ccn(-c4ccc5c(c4)N(C)C(=O)C54CCN(C(=O)C5COC5)CC4)c2=O)[C@H](C)N(C(=O)c2cc4cc([C@H]5CCOC(C)(C)C5)ccc4n2[C@@]2(c4noc(=O)[nH]4)C[C@@H]2C)CC3)cc(C)c1F [Compound 18],< 1
8,Cc1cc(-n2nc3c(c2-n2ccn(-c4ccc5c(c4)N(C)C(=O)C54CCN(S(=O)(=O)C5CC5)CC4)c2=O)[C@H](C)N(C(=O)c2cc4cc([C@H]5CCOC(C)(C)C5)ccc4n2[C@@]2(c4noc(=O)[nH]4)C[C@@H]2C)CC3)cc(C)c1F [Compound 20],< 1
9,Cc1cc(-n2nc3c(c2-n2ccn(-c4ccc5c(c4)N(C)C(=O)C54CCN(C(=O)C5C6COCC65)CC4)c2=O)[C@H](C)N(C(=O)c2cc4cc([C@H]5CCOC(C)(C)C5)ccc4n2[C@@]2(c4noc(=O)[nH]4)C[C@@H]2C)CC3)cc(C)c1F (stereo partly drawn) [Compound 22],< 1
10,Cc1cc(-n2nc3c(c2-n2ccn(-c4ccc5c(c4)N(C)C(=O)C54CCN(C(=O)C5(c6ccccn6)CC5)CC4)c2=O)[C@H](C)N(C(=O)c2cc4cc([C@H]5CCOC(C)(C)C5)ccc4n2[C@@]2(c4noc(=O)[nH]4)C[C@@H]2C)CC3)cc(C)c1F [Compound 23],< 1
11,Cc1cc(-n2nc3c(c2-n2ccn(-c4ccc5c(c4)N(C)C(=O)C54CCN(C(=O)c5cnn(C6CC6)c5)CC4)c2=O)[C@H](C)N(C(=O)c2cc4cc([C@H]5CCOC(C)(C)C5)ccc4n2[C@@]2(c4noc(=O)[nH]4)C[C@@H]2C)CC3)cc(C)c1F [Compound 25],< 1
12,Cc1cc(-n2nc3c(c2-n2ccn(-c4ccc5c(c4)N(C)C(=O)C54CCN(C(=O)C56CC(F)(C5)C6)CC4)c2=O)[C@H](C)N(C(=O)c2cc4cc([C@H]5CCOC(C)(C)C5)ccc4n2[C@@]2(c4noc(=O)[nH]4)C[C@@H]2C)CC3)cc(C)c1F [Compound 26],< 1
13,Cc1cc(-n2nc3c(c2-n2ccn(-c4ccc5c(c4)N(C)C(=O)C54CCN(C(=O)C5CCN(C(=O)C6CC6)CC5)CC4)c2=O)[C@H](C)N(C(=O)c2cc4cc([C@H]5CCOC(C)(C)C5)ccc4n2[C@@]2(c4noc(=O)[nH]4)C[C@@H]2C)CC3)cc(C)c1F [Compound 29],< 1
14,Cc1cc(-n2nc3c(c2-n2ccn(-c4ccc5c(c4)N(C)C(=O)C54CCN(C(=O)c5cnn(C(F)F)c5)CC4)c2=O)[C@H](C)N(C(=O)c2cc4cc([C@H]5CCOC(C)(C)C5)ccc4n2[C@@]2(c4noc(=O)[nH]4)C[C@@H]2C)CC3)cc(C)c1F [Compound 30],< 1
15,Cc1cc(-n2nc3c(c2-n2ccn(-c4ccc5c(c4)N(C)C(=O)C54CCN(C(=O)c5cnn(CC6CC6)c5)CC4)c2=O)[C@H](C)N(C(=O)c2cc4cc([C@H]5CCOC(C)(C)C5)ccc4n2[C@@]2(c4noc(=O)[nH]4)C[C@@H]2C)CC3)cc(C)c1F [Compound 32],< 1
16,COP(=O)(OC)N1CCC2(CC1)C(=O)N(C)c1cc(-n3ccn(-c4c5c(nn4-c4cc(C)c(F)c(C)c4)CCN(C(=O)c4cc6cc([C@H]7CCOC(C)(C)C7)ccc6n4[C@@]4(c6noc(=O)[nH]6)C[C@@H]4C)[C@H]5C)c3=O)ccc12 [Compound 33],< 1
17,Cc1cc(-n2nc3c(c2-n2ccn(-c4ccc5c(c4)N(C)C(=O)C54CCN(C(=O)C5(CF)CC5)CC4)c2=O)[C@H](C)N(C(=O)c2cc4cc([C@H]5CCOC(C)(C)C5)ccc4n2[C@@]2(c4noc(=O)[nH]4)C[C@@H]2C)CC3)cc(C)c1F [Compound 35],< 1
18,Cc1cc(-n2nc3c(c2-n2ccn(-c4ccc5c(c4)N(C)C(=O)C54CCN(C(=O)COCC5CC5(F)F)CC4)c2=O)[C@H](C)N(C(=O)c2cc4cc([C@H]5CCOC(C)(C)C5)ccc4n2[C@@]2(c4noc(=O)[nH]4)C[C@@H]2C)CC3)cc(C)c1F (stereo partly drawn) [Compound 37],< 1
19,[2H]C([2H])([2H])N1C(=O)C2(CCN(S(=O)(=O)C3CC3)CC2)c2ccc(-n3ccn(-c4c5c(nn4-c4cc(C)c(F)c(C)c4)CCN(C(=O)c4cc6cc([C@H]7CCOC(C)(C)C7)ccc6n4[C@@]4(c6noc(=O)[nH]6)C[C@@H]4C)[C@H]5C)c3=O)cc21 [Compound 38],< 1
20,[2H]C([2H])([2H])N1C(=O)C2(CCN(C(=O)C3C4COCC43)CC2)c2ccc(-n3ccn(-c4c5c(nn4-c4cc(C)c(F)c(C)c4)CCN(C(=O)c4cc6cc([C@H]7CCOC(C)(C)C7)ccc6n4[C@@]4(c6noc(=O)[nH]6)C[C@@H]4C)[C@H]5C)c3=O)cc21 (stereo partly drawn) [Compound 39],< 1
21,[2H]C([2H])([2H])N1C(=O)C2(CCN(C(=O)C3CC3F)CC2)c2ccc(-n3ccn(-c4c5c(nn4-c4cc(C)c(F)c(C)c4)CCN(C(=O)c4cc6cc(C7CCOC(C)(C)C7)ccc6n4C4(c6noc(=O)[nH]6)CC4C)C5C)c3=O)cc21 (stereo not drawn) [Compound 40],< 1
22,C[C@H]1c2c(nn(-c3ccc(F)c(C4CC4)c3)c2-n2ccn(-c3ccc4c(c3F)N(C)C(=O)C43CCOCC3)c2=O)CCN1C(=O)c1cc2cc([C@H]3CCOC(C)(C)C3)ccc2n1[C@@]1(c2noc(=O)[nH]2)C[C@@H]1C [Compound 42],< 1
23,[2H]C([2H])([2H])N1C(=O)C2(CCOCC2)c2ccc(-n3ccn(-c4c5c(nn4-c4ccc(F)c(C6CC6)c4)CCN(C(=O)c4cc6cc([C@H]7CCOC(C)(C)C7)ccc6n4[C@@]4(c6noc(=O)[nH]6)C[C@@H]4C)[C@H]5C)c3=O)c(F)c21 [Compound 43],< 1
24,[2H]C([2H])([2H])N1C(=O)C2(CCOCC2)c2ccc(-n3ccn(-c4c5c(nn4-c4ccc(F)c(C6(F)CC6)c4)CCN(C(=O)c4cc6cc([C@H]7CCOC(C)(C)C7)ccc6n4[C@@]4(c6noc(=O)[nH]6)C[C@@H]4C)[C@H]5C)c3=O)cc21 [Compound 44],< 1
